The assay relates to HCV replicon cells. Nature of the assay: Cell-based HCV replicon assay. To be noted: Hepatitis C virus, 72 h; replicon RNA level by real time PCR (Taqman), cells harvested on day 3; EC50 = concentration to achieve ΔCT=1 over baseline. How it is done: To measure cell-based anti-HCV activity of selected compounds of the present invention, replicon cells were seeded at 5000 cells/well in 96-well collagen I-coated Nunc plates in the presence of the test compound. Various concentrations of test compound, typically in 10 serial 2-fold dilutions, were added to the assay mixture, with the starting concentration ranging from 250 μM to 1 μM. The final concentration of DMSO was 0.5%, fetal bovine serum was 5%, in the assay media. Cells were harvested on day 3 by the addition of 1× cell lysis buffer (Ambion cat #8721). The replicon RNA level was measured using real time PCR (Taqman assay). The amplicon was located in 5B. The PCR primers were: 5B.2F, ATGGACAGGCGCCCTGA; 5B.2R, […]; the probe sequence was FAM-labeled CACGCCATGCGCTGCGG. GAPDH RNA was used as endogenous control and was amplified in the same reaction as NS5B (multiplex PCR) using primers and VIC-labeled probe recommended by the manufacturer (PE Applied Biosystem). […] Alternatively, to quantitate the absolute amount of replicon RNA, a standard curve was established by including serially diluted T7 transcripts of replicon RNA in the Taqman assay. […]
Background: Replicon systems follow genome replication, usually without infectious particles.

SMILES strings stand for the structures. pEC50: −log10 of the molar value. Where only a bound is given, the exact number is not on record here.

For the compound `COC(=O)N[C@@H](C(=O)N1CCC[C@H]1c1nc2ccc3cc(-c4ccc5c(ccc6nc([C@@H]7CCCN7C(=O)[C@H](NC(=O)OC)C(C)C)[nH]c65)n4)ccc3c2[nH]1)C(C)C` [Compound 1], the pEC50 (as a rule, the EC50 on a negative log10 scale, so that one unit is a factor of ten) was > 9.00.

Values taken from patent US20120276047A1, “FUSED TRICYCLIC COMPOUNDS AND DERIVATIVES THEREOF USEFUL FOR THE TREATMENT OF VIRAL DISEASES” (priority 2009, published 2012).
